Laboratory results from doi:10.1101/538157v1 (biorxiv, 2019).

These molecules were tested against T1, CAMKK2-KD (kinase domain of CAMKK2) (Homo sapiens, UniProt Q96RR4) (assay: isothermal titration calorimetry). Conditions: not given.
T1 sequence (Q96RR4 161-449): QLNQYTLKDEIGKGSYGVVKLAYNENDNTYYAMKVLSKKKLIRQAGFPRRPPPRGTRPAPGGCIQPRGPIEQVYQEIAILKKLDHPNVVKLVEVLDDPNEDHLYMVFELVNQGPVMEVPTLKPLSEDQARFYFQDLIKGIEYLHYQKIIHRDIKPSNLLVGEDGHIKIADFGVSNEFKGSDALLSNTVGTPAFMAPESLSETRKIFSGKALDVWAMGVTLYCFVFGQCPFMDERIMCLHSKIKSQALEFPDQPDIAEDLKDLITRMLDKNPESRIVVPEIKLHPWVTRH
Assay type: binding
For `COc1cc(N2CCC(N(C)C)CC2)ccc1Nc1ncc(Cl)c(Nc2ccccc2P(C)(C)=O)n1` [ALK-IN-1], the Kd was 5.8 nM.
For `CC[C@@H]1C(=O)N(C)c2cnc(Nc3ccc(C(=O)N[C@H]4CC[C@H](N5CCN(CC6CC6)CC5)CC4)cc3OC)nc2N1C(C)C` [BI 6727], the Kd was 8.1 nM.

These molecules were tested against T1, CAMKK2-KD (kinase domain of CAMKK2) (assay: biochemical). Conditions: read-out: ΔTm (°C) 96-well.
Work on `COc1cc2c(Nc3cc(Cl)c(OC)c(Cl)c3)c(C#N)cnc2cc1OCCCN1CCN(C)CC1` [Bosutinib isomer] yielded a ΔTm at 12 µM of 4.1 °C.
`c1ccc(-c2cnc(Nc3ccc(OCCN4CCCC4)cc3)s2)cc1` [Flt3 Inhibitor III] gave a ΔTm at 12 µM of 7.5 °C.
In the case of `CC(C)(C)c1nc2c3cc[nH]c(=O)c3c3cc(F)ccc3c2[nH]1` [JAK Inhibitor I], the ΔTm at 12 µM is reported as 4.7 °C.
Molecule `Cn1cc(/C=C2\C(=O)Nc3ccc(S(N)(=O)=O)cc32)c2ccccc21` [Syk Inhibitor] has a ΔTm at 12 µM of 9.4 °C.
